From PMC9611758, “Bioactive Platinum(IV) Complexes Incorporating Halogenated Phenylacetates” (Molecules, 2022)
Where “and” joins values, the source holds several entries; their conditions need not be identical. Identical values can stand only once.

Legend:
[1] = test system: panel of cell lines; test: MTT growth inhibition assay, whole panel of cell lines; type: cell-based, human; details: 72 h; for GI50: average over the cell lines tested, MTT assay; for cytotoxicity: panel of cell lines, MTT
[2] = test system: Du145 prostate; test: MTT growth inhibition assay, Du145; type: cell-based, human; details: for GI50: MTT assay, 72 h
[3] = test system: MIA pancreas; test: MTT growth inhibition assay, MIA; type: cell-based, human; details: 72 h
[4] = test system: ADDP-resistant ovarian variant; test: MTT growth inhibition assay, ADDP; type: cell-based, human; details: for GI50: MTT assay, 72 h
[5] = test system: HT29 colon cells; test: ROS detection assay (DCFH-DA); type: cell-based, human; details: for ROS production 24 h / ROS production 48 h / ROS production 72 h: HT29 colon cells, treated at GI50 concentration (TBHP positive control 20 μM); for ROS production relative to the control: HT29 colon cells, 24, 48 and 72 h
Source text: Although ROS is required for cancer cell function and progression, it can induce programmed cell death or apoptosis. […] In this study, we report the ROS activity of the studied platinum(IV) complexes, 1–8, together with the individual axial ligands (4-CPA, 4-FPA, 4-BPA, and 4-IPA) in the human cancer cell line, HT29 colon (Figure 19, Table 8, and Figure S95). The ROS potential of their platinum(II) and platinum(IV) precursors in the same cell line is also presented for comparison purposes (Table 8). […] HT29 colon cells were stained by DCFH-DA and then treated with the complexes at each specific GI50 concentration. Upon ROS production, the DCFH-DA produced dichlorodihydrofluorescein, a fluorescent product. The measured fluorescence was, therefore, proportional to the produced ROS.
To investigate the presence of ROS in treated cells, a DCFDA/H2DCFDA-cellular ROS Assay Kit (Abcam, Cambridge, MA, USA) was used, as previously described. A total of 25,000 cells/mL of HT29 cells in DMEM were seeded in 96-well plates. Cells were washed with 1X kit buffer, and then stained with 25 μM 2′,7′-dichlorofluorescein diacetate (DCFH-DA) and incubated for 45 min. DCFH-DA was then removed, and cells were then re-washed with 1X kit buffer, after which phenol red free media was added. Cells were then treated with a GI50 drug concentration for each complex. The plates were directly scanned to measure fluorescence (relative fluorescence units (RFU)) at different time points using the Glo-Max®-Multimode microplate reader (Promega Corporation, Alexandra, VIC, Australia) at an excitation/emission of 485/535 nm. To generate the positive control (20 μM tert-butyl hydroperoxide (TBHP)), cells were washed with 1X kit buffer, and stained with DCFDA (25 μM) for 45 min; this was removed and TBHP was added in phenol red free media, and the resulting solution was scanned as described above.

[6] = test system: H460 lung; test: MTT growth inhibition assay, H460; type: cell-based, human
[7] = test system: MCF-7 breast; test: MTT growth inhibition assay, MCF-7; type: cell-based, human; details: MTT assay, 72 h
[8] = test system: A431 skin; test: MTT growth inhibition assay, A431; type: cell-based, human
[9] = test system: non-tumour derived MCF10A breast line; test: MTT growth inhibition assay, MCF10A; type: cell-based, human; details: 72 h
[10] = Reduction experiments with AsA by 1H-NMR and 1D-195Pt-NMR; type: physicochemical; details: D2O, 37 °C
Source text: Platinum(IV) complexes are reduced to their platinum(II) precursors by intracellular biological reducing agents such as AsA or GSH in tumour cells. However, the precise mechanism by which reduction occurs is not fully understood. In this paper, reduction reaction experiments were undertaken on the synthesised platinum(IV) complexes, 1–8, with the aid of ^1H-NMR and 1D-^195Pt-NMR spectroscopy. The method used for the reduction reaction experiments was adapted from the literature without modifications. A total of 10 mM PBS (~7.4 pH) was selected as media, and AsA was used as the biological reducing agent to investigate the reduction property of 1–8. Prior to the reduction reaction experiments, a control was prepared where each metal complex was dissolved with PBS in D2O. 1D-^195Pt-NMR was measured within the regions of −2800 and 400 ppm (30 min per region), at 37 °C. This was undertaken to confirm that the PBS would not interfere with the reduction process of the metal complexes. […] The approximate time points for the studied complexes at which an estimated 50% reduction had occurred, in the presence of AsA, as represented by T50%, are summarised in Table 6.
The reduction properties of 1–8 were monitored using ^1H-NMR and 1D-^195Pt-NMR spectroscopy on a 400 MHz Bruker (Melbourne, VIC, Australia) Avance Spectrometer. A sequence of ^1H-NMR experiments was carried out for 1 h at 37 °C, followed by 1D-^195Pt-NMR within the regions of −2800 and 400 ppm. An amount of 10 mM PBS (~7.4 pH) was transferred to a vial and reduced to dryness through rotary evaporation. AsA (~1 mg) was combined with the metal complex (~5 mg) and transferred to the vial containing the dried PBS. A total of 600 µL of D2O was then added to the vial to dissolve the complex, AsA, and the PBS together.

[11] = test system: SJ-G2 glioblastoma; test: MTT growth inhibition assay, SJ-G2; type: cell-based, human
[12] = test system: HT29 colon; test: MTT growth inhibition assay, HT29; type: cell-based, human; details: MTT assay, 72 h
[13] = Lipophilicity by HPLC (log kw); type: physicochemical
Source text: For lipophilicity measurements, HPLC was utilised instead of the traditional shake-flask method, as described previously. Recent studies have also reported the efficiency of HPLC in measuring the lipophilicity of compounds [79, 80]. Each complex was eluted under several isocratic ratios. A standard curve was generated to calculate the log value of the capacity factor (log k) according to Equation (1). Following Equation (2), the percentage of organic solvent (CH3CN) in the mobile phase from each isocratic run was plotted against log kw (Figure S80). Log kw is the chromatographic lipophilicity index or measure of lipophilicity of the complex, so a higher value corresponds to greater lipophilicity. Because the selected axial ligands in this study contain F, Cl, Br, and I, it was only appropriate to determine the influence of the halogens on the overall lipophilicity of the platinum(IV) complexes. […] Conversely, the least lipophilic complex was the phen derivative containing 4-FPA, 3, with a log kw of 0.25. Furthermore, for the phen derivatives, the order of increasing lipophilicity was 3 > 1 > 5 > 7, which corresponds to the order of increasing size of the halogens, F > Cl > Br > I. This pattern was also observed with the 5,6-Me2phen derivatives (4 > 2 > 6 > 8), thereby confirming that the halogens increased the order of lipophilicity accordingly based on their size.
For lipophilicity measurements, analytical HPLC was utilised. Elution profiles were acquired on an Agilent (Melbourne, VIC, Australia) Technologies 1260 Infinity instrument equipped with a Phenomenex Onyx^TM Monolithic C18-reverse phase column (100 × 4.6 mm, 5 µm pore size) (Sydney, NSW, Australia). The mobile phase consisted of solvents, A (0.06% TFA in d.i.H2O) and B (0.06% TFA in CH3CN/d.i.H2O (90:10)). Potassium iodide was used as an external dead volume marker to determine the dead time of the column. Retention times (TR) were measured at varying isocratic ratios ranging from 30 to 36% of solvent B at 1 mL·min^−1 mL. An injection volume of 10 µL was utilised. Capacity factors were determined according to Equation (1):(1) k=(TR−T0)/T0 where k is the capacity factor, TR is the retention time of the analyte, and T0 represents the dead time. A minimum of four different mobile compositions were used for each complex to calculate k. A linear plot was generated of log k against the concentration of CH3CN in the mobile phase to determine the value of log kw expressed by Equation (2):(2) logk=Sφ+logkw where S is the slope, φ is the concentration of the CH3CN in the mobile phase, and log kw represents the capacity factor of the complex in 100% d.i.H2O. Extrapolation of this linear plot to the y-intercept indicates the log kw value.

[14] = test system: U87 glioblastoma; test: MTT growth inhibition assay, U87; type: cell-based, human; details: 72 h
[15] = test system: BE2-C neuroblastoma; test: MTT growth inhibition assay, BE2-C; type: cell-based, human; details: 72 h
[16] = test system: A2780 ovarian; test: MTT growth inhibition assay, A2780; type: cell-based, human

| SMILES | ROS production 24 h [5] [RFU] | ROS production 48 h [5] [RFU] | ROS production 72 h [5] [RFU] | GI50 ([1]; Homo sapiens) [µM] | cytotoxicity [1] | GI50 ([2]; Homo sapiens, DU-145) [µM] | GI50 ([3]; Homo sapiens) [µM] | GI50 ([4]; Homo sapiens) [µM] | ROS production relative to the control [5] | GI50 ([6]; Homo sapiens, NCI-H460, 72 h) [µM] | GI50 ([7]; Homo sapiens, MCF7) [µM] | GI50 ([8]; Homo sapiens, A-431, 72 h) [µM] | GI50 ([9]; Homo sapiens, MCF-10A) [µM] | GI50 ([11]; Homo sapiens, SJ-G2, 72 h) [µM] | GI50 ([12]; Homo sapiens, HT-29) [µM] | GI50 ([14]; Homo sapiens) [µM] | GI50 ([15]; Homo sapiens, BE(2)-C) [µM] | GI50 ([16]; Homo sapiens, A2780, 72 h) [µM] | further results |
| --- | --- | --- | --- | --- | --- | --- | --- | --- | --- | --- | --- | --- | --- | --- | --- | --- | --- | --- | --- |
| Cc1c(C)c2c3c4c1=CC=C[N]4[Pt+2]([OH])([O]C(=O)Cc1ccc(F)cc1)[N]3C=CC=2.N[C@H]1CCCC[C@@H]1N [Complex 4, [Pt^IV(5,6-Me2phen)(SS-DACH)(4-FPA)(OH)]^2+] | 579 ± 18 | 681 ± 17 | 738 ± 15 |  |  |  |  |  |  |  |  |  |  |  |  |  |  |  | GI50 [1]: 0.023 ± 0.004 µM; fold more potent than 56MESS ([2]; Du145 prostate, ratio of GI50 values): ~7 fold and 6.6 fold; GI50 [2]: 0.0007 ± 0.0004 µM; GI50 [3]: 0.005 ± 0.002 µM; fold more potent than cisplatin [4]: ~4700 fold; GI50 [4]: 0.006 ± 0.002 µM; GI50 ([6]; 72 h): 0.01 ± 0.003 µM; GI50 [7]: 0.023 ± 0.005 µM; GI50 ([8]; 72 h): 0.014 ± 0.002 µM; GI50 [9]: 0.011 ± 0.003 µM; T50% (approximate time at which 50% reduction occurs) ([10]; 10 mM PBS (~7.4 pH), 1H-NMR): 20 to 25 min; extent of reduction 1 h after the final 1H-NMR experiment (1D-195Pt-NMR) ([10]; PBS, regions −2800 and 400 ppm): partial reduction; GI50 ([11]; 72 h): 0.03 ± 0.008 µM; GI50 [12]: 0.006 ± 0.002 µM; log kw ([13]; chromatographic lipophilicity index, extrapolated to 100% d.i.H2O): 0.80; log kw (y-intercept of log k versus [CH3CN] % plot, Figure S80) ([13]; linear fit): 0.8042; GI50 [14]: 0.037 ± 0.005 µM; GI50 [15]: 0.11 ± 0.02 µM; GI50 ([16]; 72 h): 0.02 ± 0.004 µM |
| O=C(O)Cc1ccc(I)cc1 [Complex 4-IPA, 4-iodophenylacetic acid] | 137 ± 7 | 182 ± 12 | 206 ± 9 | > 50 | did not demonstrate significant cytotoxicity | > 50 | > 50 | > 50 | increase in ROS production relative to the control | > 50 | > 50 | > 50 | > 50 | > 50 | > 50 | > 50 | > 50 | > 50 |  |
| O=C(O)Cc1ccc(Br)cc1 [Complex 4-BPA, 4-bromophenylacetic acid] | 172 ± 9 | 198 ± 10 | 222 ± 13 | > 50 | did not demonstrate significant cytotoxicity | > 50 | > 50 | > 50 | increase in ROS production relative to the control | > 50 | > 50 | > 50 | > 50 | > 50 | > 50 | > 50 | > 50 | > 50 |  |
| CC(C)(C)OO [TBHP, tert-butyl hydroperoxide] | 514 ± 3 | 336 ± 2 | 332 ± 5 |  |  |  |  |  |  |  |  |  |  |  |  |  |  |  |  |
| O=C(O)Cc1ccc(F)cc1 [Complex 4-FPA, 4-fluorophenylacetic acid] | 197 ± 8 | 224 ± 11 | 236 ± 6 | > 50 | did not demonstrate significant cytotoxicity | > 50 | > 50 | > 50 | increase in ROS production relative to the control | > 50 | > 50 | > 50 | > 50 | > 50 | > 50 | > 50 | > 50 | > 50 |  |
| O=C(O)Cc1ccc(Cl)cc1 [Complex 4-CPA, 4-chlorophenylacetic acid] | 167 ± 13.2 | 207 ± 14.5 | 233 ± 10.4 | > 50 | did not demonstrate significant cytotoxicity | > 50 | > 50 | > 50 | increase in ROS production relative to the control | > 50 | > 50 | > 50 | > 50 | > 50 | > 50 | > 50 | > 50 | > 50 |  |
